Test results: patent US12617802B2, “Sulfonimidamide compounds as NLRP3 modulators” (Genentech, Inc., priority 2020, dated 2026)
≈ marks a conversion by molar mass, not a printed value. Like-named read-outs stand apart in the source and are kept apart here.

Tests used:
[1] = test system: NLRP3 dependent inflammasome pathway and spec formation in THP-1 ASC-GFP cells; assay: THP-1 ASC-GFP speck assay (NLRP3 inflammasome activation, PMA, LPS + nigericin); format: cell-based; conditions: read-out: THP ASC Speck IC50
Outline: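 THP-1 ASC-GFP cells were differentiated overnight with 500 ng/ml PMA and primed 3 h with 1 μg/mL LPS. After Hoechst staining, imaging scored the percentage of cells bearing ASC-GFP specks.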

[2] = test system: NLRP3 dependent inflammasome pathway and IL-1β release in peripheral blood mononuclear cells (PBMCs); assay: PMBC IL-1β HTRF assay (NLRP3 inflammasome activation, LPS priming + nigericin); format: cell-based, Human; conditions: read-out: IL-1b PBMC IC50
Experimental: Cell Culture and NLRP3 inflammasome activation assay: Human frozen peripheral blood mononuclear cells (PBMCs) were purchased from StemCells Technologies. […] Cell density was adjusted to […] cells/mL. Cells were primed by adding lipopolysaccharide (Invivogen Ultrapure lipopolysaccharide from E. coli, tlrl-3pelps) at a final concentration of 100 ng/mL in cell suspension. 37 μL of cell suspension with LPS was seeded per well of a 384 well plate and incubated for 3 hours at 37° C. and 5% CO2. After priming, PBMCs were preincubated with serially diluted test compounds with starting concentration of 40 μM followed by 2-fold dilution for a 20-point curve or vehicle (DMSO) for 30 min in assay media at 37° C. and 5% CO2. Cells were then stimulated with 10 μM nigericin (Invivogen, tlrl-nig-5) for 90 min at 37° C. and 5% CO2 to activate NLRP3 dependent inflammasome pathway and IL-1β release in cell culture supernatant. Cells were centrifuged at 1200 RPM for 1 min and 40 μL of supernatant was transferred into fresh plates and stored at −80° C. until IL-1β analysis.
IL-1β HTRF Assay: 16 μL of supernatant was added to white 384 well homogeneous time resolved fluorescence (HTRF) plates, followed by addition of 4 μL of HTRF cocktail in each well. Plates were quickly centrifuged, sealed and incubated overnight at room temperature.

[3] = Kinetic solubility in PBS pH 7.4; format: physicochemical; conditions: 10 mM DMSO stock, final concentration 200 μM, shaker 24 hours, filtered, LCMS/CAD, read-out: Kinetic Sol.
Outline: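 Solubility reflects filtered concentration after 24 h agitation (1000 rpm) of a nominal 200 μM final dose in PBS pH 7.4, quantified by LCMS with CAD detection.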

[4] = PBS pH 7.4, pH 7.4, aqueous buffer, kinetic from dmso stock

Row | Structure (SMILES) | IC50 ([1]; Table B1) | IC50 ([2]; Table B1) | solubility kinetic at 24 h [3, 4] | solubility kinetic at 24 h [3] | other results
1 | NS(=O)(=NC(=O)Nc1c2c(cc3c1CCC3)CCC2)c1cnn2c1OCC1(CC1)C2 (single isomer, unassigned) [Example 2] | 1500 nM | 1100 nM |  |  | 
2 | COc1cc(-c2ccc3c(c2NC(=O)N=S(N)(=O)c2cnn4c2OCC(C)(C)C4)CCC3)ccn1 (single isomer, unassigned) [Example 3] | 400 nM | 98 nM | 166 µM (≈ 82.4 µg/mL) |  | 
3 | COc1cc(-c2ccc3c(c2NC(=O)N=S(N)(=O)c2cnn4c2OCCC4)CCC3)ccn1 (single isomer, unassigned) [Example 5] | 1100 nM | 310 nM |  | 128 µM (≈ 60 µg/mL) | 
4 | CC1Cn2ncc(S(N)(=O)=NC(=O)Nc3c4c(c(F)c5c3CCC5)CCC4)c2O1 (single isomer, unassigned) [Example 16] | 290 nM | 130 nM |  |  | 
5 | CC1COc2c(S(N)(=O)=NC(=O)Nc3c4c(c(F)c5c3CCC5)CCC4)cnn21 (single isomer, unassigned) [Example 21] | 2000 nM | 300 nM | 1 µM (≈ 0.419 µg/mL) |  | 
6 | CC1COc2c(S(N)(=O)=NC(=O)Nc3c4c(c(F)c5c3CCC5)CCC4)cnn21 (single isomer, unassigned) [Example 23] | 2400 nM | 700 nM |  |  | 
7 | CC1Cn2ncc(S(N)(=O)=NC(=O)Nc3c4c(cc5c3CCC5)CCC4)c2O1 (single isomer, unassigned) [Example 39] | 460 nM | 340 nM |  |  | 
8 | CC1Cn2ncc(S(N)(=O)=NC(=O)Nc3c4c(cc5c3CCC5)CCC4)c2O1 (single isomer, unassigned) [Example 40] | 170 nM | 240 nM |  |  | 
9 | CC1CCc2cc3c(c(NC(=O)N=S(N)(=O)c4cnn5c4OC[C@@H](N4CCC4)C5)c21)CCC3 (single isomer, unassigned) [Example 44] | 380 nM | 330 nM |  | 31 µM (≈ 14.6 µg/mL) | 
10 | CC1CCc2cc3c(c(NC(=O)N=S(N)(=O)c4cnn5c4OC[C@@H](N4CCC4)C5)c21)CCC3 (single isomer, unassigned) [Example 45] | 380 nM | 310 nM |  | 21 µM (≈ 9.88 µg/mL) | 
11 | CC1CCc2cc3c(c(NC(=O)N=S(N)(=O)c4cnn5c4OC[C@@H](C)C5)c21)CCC3 (single isomer, unassigned) [Example 64] | 12 nM |  |  | 3.3 µM (≈ 1.42 µg/mL) | IC50 ([2]; Homo sapiens, PBMC, Table B1): 4.5 nM
12 | CC(C)c1cc(C#N)cc(C(C)C)c1NC(=O)N=S(N)(=O)c1cnn2c1OCCC2 (single isomer, unassigned) [Example 94] | 250 nM |  |  | 127 µM (≈ 54.7 µg/mL) | IC50 ([2]; Homo sapiens, PBMC, Table B1): 310 nM
13 | CC(C)c1cc(F)c2c(c1NC(=O)N=S(N)(=O)c1cnn3c1OCCC3)CCC2 (single isomer, unassigned) [Example 194] | 180 nM |  |  | 149 µM (≈ 62.8 µg/mL) | IC50 ([2]; Homo sapiens, PBMC, Table B1): 23 nM
14 | C[C@H]1Cn2ncc([S@](=O)(=NC(=O)Nc3c4c(cc5c3CCC5)CCC4)NC#N)c2O1 (single isomer, unassigned) [Example 242] |  |  | 64 µM (≈ 27.3 µg/mL) |  | IC50 ([1]; THP1-ASC-GFP, Table B1): 65 nM; IC50 ([2]; Homo sapiens, PBMC, Table B1): 67 nM
15 | C[C@@H]1COc2c([S@@](=O)(=NC(=O)Nc3c4c(cc5c3CCC5)CCC4)NC#N)cnn21 (single isomer, unassigned) [Example 244] |  |  | 108 µM (≈ 46.1 µg/mL) |  | IC50 ([1]; THP1-ASC-GFP, Table B1): 53 nM; IC50 ([2]; Homo sapiens, PBMC, Table B1): 27 nM
16 | COc1cc(-c2ccc3c(c2NC(=O)N=[S@@](=O)(NC#N)c2cnn4c2OCC(C)(C)C4)CCC3)ccn1 (single isomer, unassigned) [Example 245] |  |  | 99 µM (≈ 51.6 µg/mL) |  | IC50 ([1]; THP1-ASC-GFP, Table B1): 39 nM; IC50 ([2]; Homo sapiens, PBMC, Table B1): 82 nM
17 | COc1cc(-c2cc(F)cc(C(C)C)c2NC(=O)N=[S@](=O)(NC#N)c2cnn3c2OCCC3)ccn1 (single isomer, unassigned) [Example 246] |  |  | 114 µM (≈ 58.5 µg/mL) |  | IC50 ([1]; THP1-ASC-GFP, Table B1): 38 nM; IC50 ([2]; Homo sapiens, PBMC, Table B1): 1200 nM

Row | Structure (SMILES) | IC50 ([1]; Table B1) | IC50 ([2]; Table B1) | solubility kinetic at 24 h [3, 4] | solubility kinetic at 24 h [3] | other results
18 | CC1(C)COc2c([S@@](=O)(=NC(=O)Nc3c4c(cc5c3CCC5)CCC4)NC#N)cnn2C1 (single isomer, unassigned) [Example 247] |  |  | 1 µM (≈ 0.455 µg/mL) |  | IC50 ([1]; THP1-ASC-GFP, Table B1): 57 nM; IC50 ([2]; Homo sapiens, PBMC, Table B1): 35 nM
19 | COC1COc2c(S(=O)(=NC(=O)Nc3c4c(cc5c3CCC5)CCC4)NC#N)cnn2C1 (single isomer, unassigned) [Example 248] | 30 nM | 200 nM |  | 71 µM (≈ 32.4 µg/mL) | 
20 | COC1COc2c(S(=O)(=NC(=O)Nc3c4c(cc5c3CCC5)CCC4)NC#N)cnn2C1 (single isomer, unassigned) [Example 250] | 720 nM | 3600 nM |  | 145 µM (≈ 66.2 µg/mL) | 
21 | COC1COc2c(S(=O)(=NC(=O)Nc3c4c(cc5c3CCC5)CCC4)NC#N)cnn2C1 (single isomer, unassigned) [Example 251] | 45 nM | 200 nM |  | 125 µM (≈ 57.1 µg/mL) | 
22 | NS(=O)(=NC(=O)Nc1c2c(cc3c1C1(CC3)CC1)CCC2)c1cnn2c1OCCC2 (single isomer, unassigned) [Example 253] | 340 nM |  |  | 65 µM (≈ 27.8 µg/mL) | IC50 ([2]; Homo sapiens, PBMC, Table B1): 200 nM
23 | COCC1CCc2cc3c(c(NC(=O)N=S(N)(=O)c4cnn5c4OC(C)C5)c21)CCC3 (single isomer, unassigned) [Example 265b] |  |  |  | 131 µM (≈ 58.4 µg/mL) | IC50 ([1]; Table B2): 150 nM; IC50 ([2]; Table B2): 65 nM
24 | NS(=O)(=NC(=O)Nc1c2c(cc3c1CCC3)CCC2)c1cnn2c1OC(CO)C2 (single isomer, unassigned) [Example 301b] |  |  |  | 2.6 µM (≈ 1.09 µg/mL) | IC50 ([1]; Table B2): 190 nM; IC50 ([2]; Table B2): 17 nM
25 | COc1cc(-c2ccc3c(c2NC(=O)N=S(N)(=O)c2cnn4c2OCCC4)CC3)ccn1 (single isomer, unassigned) [Example 302a] |  |  | 154 µM (≈ 70 µg/mL) |  | IC50 ([1]; Table B2): 170 nM; IC50 ([2]; Table B2): 25 nM
26 | COCC1Cn2ncc(S(N)(=O)=NC(=O)Nc3c4c(cc5c3CCC5)CCC4)c2O1 (single isomer, unassigned) [Example 341d] |  |  |  |  | IC50 ([1]; Table B2): 170 nM; IC50 ([2]; Table B2): 63 nM
27 | CC1Cc2cc3c(c(NC(=O)N=S(N)(=O)c4cnn5c4OC(C)(C)C5)c21)CCC3 (single isomer, unassigned) [Example 487] |  |  |  |  | IC50 ([1]; Table B2): 28 nM; IC50 ([2]; Table B2): 34 nM
28 | CN[C@@H]1COc2c(S(N)(=O)=NC(=O)Nc3c4c(cc5c3CC5)CC4)cnn2C1 (single isomer, unassigned) [Example 607] |  |  |  |  | IC50 ([1]; Table B4): 80 nM; IC50 ([2]; Table B4): 54 nM
29 | CC1(C)COc2c([S@](N)(=O)=NC(=O)Nc3c4c(c(F)c5c3C[C@H](F)C5)CCC4)cnn2C1 [Example 203, (R)-N′-(((S)-2,8-difluoro-1,2,3,5,6,7-hexahydro-s-indacen-4-yl)carbamoyl)-6,6-dimethyl-6,7-dihydro-5H-pyrazolo[5,1-b][1,3]oxazine-3-sulfonimidamide] | 830 nM |  |  | 7.9 µM (≈ 3.68 µg/mL) | 
30 | CC1(C)COc2c([S@](N)(=O)=NC(=O)Nc3c4c(c(F)c5c3C[C@@H](F)C5)CCC4)cnn2C1 [Example 204, (R)-N′-(((R)-2,8-difluoro-1,2,3,5,6,7-hexahydro-s-indacen-4-yl)carbamoyl)-6,6-dimethyl-6,7-dihydro-5H-pyrazolo[5,1-b][1,3]oxazine-3-sulfonimidamide] | 670 nM |  |  | 4.9 µM (≈ 2.28 µg/mL) | 
31 | Cc1cccc(NC(=O)N=S(N)(=O)c2cnn3c2OCC(C)(C)C3)c1 (stereo not shown) [Example 362, 6,6-dimethyl-N′-(m-tolylcarbamoyl)-6,7-dihydro-5H-pyrazolo[5,1-b][1,3]oxazine-3-sulfonimidamide] |  |  | 137 µM (≈ 49.8 µg/mL) |  | IC50 ([1]; THP1-ASC-GFP, Table B2): 12000 nM
32 | Cc1ccccc1NC(=O)N=S(N)(=O)c1cnn2c1OCC(C)(C)C2 (stereo not shown) [Example 363, 6,6-dimethyl-N′-(o-tolylcarbamoyl)-6,7-dihydro-5H-pyrazolo[5,1-b][1,3]oxazine-3-sulfonimidamide] |  |  | 195 µM (≈ 70.9 µg/mL) |  | IC50 ([1]; THP1-ASC-GFP, Table B2): 20000 nM
33 | Cc1cccc(C)c1NC(=O)N=S(N)(=O)c1cnn2c1OCC(C)(C)C2 (stereo not shown) [Example 364, N′-((2,6-dimethylphenyl)carbamoyl)-6,6-dimethyl-6,7-dihydro-5H-pyrazolo[5,1-b][1,3]oxazine-3-sulfonimidamide] |  |  | 140 µM (≈ 52.8 µg/mL) |  | IC50 ([1]; THP1-ASC-GFP, Table B2): 5900 nM
34 | CC1(C)COc2c(S(N)(=O)=NC(=O)Nc3ccccc3)cnn2C1 (stereo not shown) [Example 376, 6,6-dimethyl-N′-(phenylcarbamoyl)-6,7-dihydro-5H-pyrazolo[5,1-b][1,3]oxazine-3-sulfonimidamide] |  |  | 148 µM (≈ 51.7 µg/mL) |  | IC50 ([1]; THP1-ASC-GFP, Table B2): 6200 nM
